Results published in publication PMC6627469 (Journal of Medicinal Chemistry, 2019).
“Also recorded” adds a separate entry of the source.

What was measured:
[1] = test system: Influenza A virus WU95 (containing a H3 protein of a human H3N2 virus); assay type: binding
H3-containg WU95 virus = assay: Hemagglutination inhibition; assay type: cell-based, Influenza A virus; settings: relative to the potency of 8, corrected for valency
IAV WU95 = assay type: cell-based, Influenza A virus

| SMILES | rel pot. (BLI) [1] | rel pot. per sugar (BLI) [1] | rel pot. per sugar (HAI) (H3-containg WU95 virus) | effect on infection, single agent (IAV WU95) | IC50 BLI [1] |
| --- | --- | --- | --- | --- | --- |
| C#CCO[C@@H]1O[C@H](CO)[C@@H](O[C@@H]2O[C@H](CO[C@]3(C(=O)O)C[C@H](O)[C@@H](NC(C)=O)[C@H]([C@H](O)[C@H](O)CO)O3)[C@H](O)[C@H](O)[C@H]2O)[C@H](O)[C@H]1NC(C)=O [Compound 7] | 1 (1) | 1 (1) | – | – | – |
| CC(=O)N[C@H]1[C@H]([C@H](O)[C@H](O)CO)O[C@@](OC[C@H]2O[C@@H](O[C@H]3[C@H](O)[C@@H](O)[C@H](OCc4cn(CCCC(=O)Nc5cccc(-c6cc(-c7cccc(NC(=O)CCCn8cc(CO[C@@H]9O[C@H](CO)[C@@H](O[C@@H]%10O[C@H](CO[C@]%11(C(=O)O)C[C@H](O)[C@@H](NC(C)=O)[C@H]([C@H](O)[C@H](O)CO)O%11)[C@H](O)[C@H](O)[C@H]%10O)[C@H](O)[C@H]9O)nn8)c7)cc(-c7cccc(NC(=O)CCCn8cc(CO[C@@H]9O[C@H](CO)[C@@H](O[C@@H]%10O[C@H](CO[C@]%11(C(=O)O)C[C@H](O)[C@@H](NC(C)=O)[C@H]([C@H](O)[C@H](O)CO)O%11)[C@H](O)[C@H](O)[C@H]%10O)[C@H](O)[C@H]9O)nn8)c7)c6)c5)nn4)O[C@@H]3CO)[C@H](O)[C@@H](O)[C@H]2O)(C(=O)O)C[C@@H]1O [Compound 10] | 20 (7) | 20 (7) | 2 | – | – |
| CCC(CC)O[C@@H]1C=C(C(=O)O)C[C@H](N)[C@H]1NC(C)=O [oseltamivir carboxylate] | – | – | – | little effect | – |
| CC(=O)N[C@H]1[C@H](O[C@H]2[C@@H](O)[C@@H](CO)O[C@@H](O[C@H]3[C@H](O)[C@@H](O)[C@H](n4cc(-c5ccc(-c6cn(CCCC(=O)Nc7cccc(-c8cc(-c9cccc(NC(=O)CCCn%10cc(-c%11ccc(-c%12cn([C@@H]%13O[C@H](CO)[C@@H](O[C@@H]%14O[C@H](CO)[C@H](O)[C@H](O[C@@H]%15O[C@H](CO)[C@@H](O[C@@H]%16O[C@H](CO)[C@H](O)[C@H](O)[C@H]%16O)[C@H](O)[C@H]%15NC(C)=O)[C@H]%14O)[C@H](O)[C@H]%13O)nn%12)cc%11)nn%10)c9)cc(-c9cccc(NC(=O)CCCn%10cc(-c%11ccc(-c%12cn([C@@H]%13O[C@H](CO)[C@@H](O[C@@H]%14O[C@H](CO)[C@H](O)[C@H](O[C@@H]%15O[C@H](CO)[C@@H](O[C@@H]%16O[C@H](CO)[C@H](O)[C@H](O)[C@H]%16O)[C@H](O)[C@H]%15NC(C)=O)[C@H]%14O)[C@H](O)[C@H]%13O)nn%12)cc%11)nn%10)c9)c8)c7)nn6)cc5)nn4)O[C@@H]3CO)[C@@H]2O)O[C@H](CO)[C@@H](O[C@@H]2O[C@H](CO)[C@H](O)[C@H](O)[C@H]2O)[C@@H]1O [Compound 13] | – | – | – | – | did not yield any detectable inhibition in the assay up to the 20 μM; also recorded: no inhib at 20 μM |
| CC(=O)N[C@H]1[C@H]([C@H](O)[C@H](O)CO)O[C@@](OC[C@H]2O[C@@H](O[C@H]3[C@H](O)[C@@H](O)[C@H](OCc4cn([C@@H]5O[C@H](CO)[C@@H](n6cc(-c7ccc(-c8cn([C@H]9[C@H](O)[C@@H](O)[C@H](n%10cc(CO[C@@H]%11O[C@H](CO)[C@@H](O[C@@H]%12O[C@H](CO[C@]%13(C(=O)O)C[C@H](O)[C@@H](NC(C)=O)[C@H]([C@H](O)[C@H](O)CO)O%13)[C@H](O)[C@H](O)[C@H]%12O)[C@H](O)[C@H]%11O)nn%10)O[C@@H]9CO)nn8)cc7)nn6)[C@H](O)[C@H]5O)nn4)O[C@@H]3CO)[C@H](O)[C@@H](O)[C@H]2O)(C(=O)O)C[C@@H]1O [Compound 17] | 23 (12) | 23 (12) | – | – | – |
